From patent US9045474B2, “Compounds and compositions for mitigating tissue damage and lethality” (The Regents of the University of California, priority 2010, dated 2015)
“Also recorded” adds a separate entry of the source.

Experiments:
[1] = tested on: RS112 strain of S. cerevisiae; test: Classical DEL plating assay, radioprotection at 2000Gy irradiation; format: cell-based, Saccharomyces cerevisiae
Description: All DEL assays utilize the established methodology of “recombination” (deletion of the interruption segment and consequent end joining of the adjacent sequences) of a disrupted histidine gene that renders yeast cells exposed to radiation capable of growing on media lacking this amino acid. In the classical DEL assay radiation sensitive RS112 strain of S. cerevisiae is added to the compounds of interest suspended in complete media, incubated for 2 hrs, and irradiated at 2000Gy. The cells are then plated onto full (+13) and lacking histidine (−His) agar plates. After incubation the colonies are scored and recombination events are calculated. The efficacy of the compound is evaluated as a reduced fraction of DEL recombinations in comparison to that of irradiated controls without treatment. Radioprotectors decrease the frequency of such recombination frequencies after radiation exposure.
A plasmid with an internal fragment of the HIS3 gene, which is responsible for histidine synthesis in yeast, without which cells cannot survive in media lacking histidine, has been integrated at the HIS3 locus, yielding an integrative disruption of the HIS3 gene (Schiestl, R. H., et al., Genetics, 1988. 119(2): p. 237-47). […]

[2] = tested on: RS112 cells; test: DEL plating assay for mitigation of radiation damage (treatment after 2000Gy); format: cell-based, Saccharomyces cerevisiae
Description: The mitigation protocol is based on the same DEL assay principle of recombination of the disrupted HIS3 gene that renders the cells capable of synthesizing its own histidine following radiation exposure. To establish mitigation properties of the compounds in question, the classical DEL protocol is modified as follows: first the RS112 cells are irradiated with 2000Gy and then the treatments are administered at 0 min, 10 min, 20 min, 30 min, and 60 min, incubated for 2 hrs, and plated on +13 and −His agar plates. The efficacy of the compounds is scored the same way as in the classical DEL protocol. Yel1 and Yel2 analogues that are efficacious in the HTS and classical DEL assay are analyzed for mitigation activity using this modified DEL protocol.
Six confirmed hits were also tested for radioprotection with the compounds being presented to irradiated cells at different time points following irradiation exposure. The DEL Plating Assay was used with a radiation sensitive Saccharomyces cerevisiae RS112 strain.
The general DEL Assay is described above. In this example, DEL assay is a genetic construct in the Saccharomyces cerevisiae RS112 strain where a plasmid with an internal fragment of the HIS3 gene has been integrated at the HIS3 locus, yielding an integrative disruption of the HIS3 gene. […] The construct reverts to HIS3+ by recombination between the two his3 deletion alleles which is, in 99% of the cases, associated with the deletion of the entire 6 kilobasepairs of DNA comprising the integrated plasmid. DEL events are inducible with a variety of DNA-assaulting agents: radiation, smoking, UV exposure, 92% of the known carcinogens, etc.
RS112 cells irradiated with 2000Gy show an induction of the deletion frequencies (DEL events) and roughly a 90% killing.

[3] = tested on: mammalian cell lines; test: Therapy Bioluminescence Assay (survival following irradiation); format: cell-based; conditions: data not shown
[4] = tested on: C3H mice; test: Toxicity experiments in C3H mice; format: in vivo, mouse; conditions: 150 mg/kg, 75 mg/kg and 5 mg/kg; 120 days following the injections
Description: Having seen no adverse effects of the chemicals alone on mammalian cell models we performed a preliminary toxicity study on a group of C3H mice. […] In a pilot reproductive toxicity study, 12, week old female mice were paired up with 6 week old male mice and checked daily for the presence of a characteristic “plug” in the female vaginal canal as an indication of mating. As soon as the mating has occurred, males were removed and the females were treated weekly with 75 mg/kg s.c. throughout the gestation period and until the pups were weaned off (8 week treatment course). After weaning, treatment of the offspring was initiated at the same 75 mg/kg s.c. weekly dose. Controls were injected s.c. on the same schedule with the carrier (1N saline). Five treated and five control females gave birth to the same average number of pups per litter (n=6) without any detectable toxicities to the other. 3 litters of each treated and control groups survived to continue the study. No pathologies, toxicities nor adverse effects were observed. There are no developmental or teratogenic deficiencies in mice, average weights (21 g) are the same in both groups also.

[5] = tested on: DBA/2 Mice; test: Radiation-induced leukemia model; format: in vivo, mouse
Description: DBA/2 Mice (15/group) were irradiated with ^60Co (3.5 Gy, 0.6 Gy/min) to induce leukemia. One group received no drug, another group of mice were injected s.c. with Yel001 or Yel002 (25 mg/kg) with 5 injections for 5 days. Leukemogenesis was monitored for 90 days. Blood was drawn at days −1, 21, 42, and 63 to monitor for leukemia every 21 days to monitor for leukemia development using WBCs and differentials. This leukemia model takes advantage of non-targeted radiation effects, which are important to the carcinogenic process. This model has a shorter latency period to gamma radiation-induced leukemia (latency to 50% leukemic population: 107 days) than other murine leukemia models such as CBA mouse (399 days: 50% leukemic population). DBA/2 mice were irradiated with 3.5 Gy (^60Co 0.60 Gy/min) and then injected intravenously with (5×10^6) FDC-P1 cells. Animals were then monitored 5×/weekly for 10 weeks-post-injection and then daily after 10 weeks-post-injection until leukemia development and/or euthanasia. After the animal has been determined to be leukemic using hematological parameters, it is euthanized and a necropsy is conducted to definitively determine a conclusive diagnosis of leukemia. Control animals not developing leukemia are assessed at 270 days post experiment initiation. At that time they are euthanized and necropsied.

[6] = tested on: yeast DEL tester strain RS112; test: DEL assay, UV radiation-induced damage; format: cell-based, Saccharomyces cerevisiae
Description: DEL tester strain was irradiated with 4000 J/m^2 in the ultraviolet range and treated with Yel001 or Yel002 at 60 minutes at the concentration of 15 uM.

[7] = tested on: DEL RS112 tester strain; test: DEL assay, damage by chemical carcinogen MMS; format: cell-based, Saccharomyces cerevisiae; conditions: 15 uM, 1 hrs after exposure to MMS
Source text: A DEL assay, described above, is used for assessing mitigation of damage induced by chemical carcinogens by compounds of invention.
Tests in this example show administration of Yel001 and Yel002 confers reduction against chemical carcinogen Methyl methanesulfonate (MMS) in vitro.
Reduction of cytotoxicity and genotoxicity with Yel002 is p<0.007 and p<0.04 restively; p-values for Yel001 are 0.0007 (genotoxicity) and 0.1 for cytotoxicity.

[8] = tested on: C3H mice; test: Mitigation of radiation-induced lethality in C3H mice (8Gy, LD100/30); conditions: 8Gy; for mice survived LD100/30 irradiation: 75 mg/kg at 1 hr and 25 hrs post exposure, past 30 days, first small study
Description: Radiomitigation studies were conduced by pre-treating C3H mice with the compounds of interest at as concentration of 75 mg/kg and at 24 hrs and 1 hr before an 8 Gy exposure. On a 5×24 mitigation treatment protocol mice were first lethally irradiated with 8 Gy and 24 hrs later received the first subcutaneous injection with the compound suspension with subsequent injections at 48, 72, 96, and 120 hrs. The concentration of the compound in the suspension was 75 mg/kg carrier with either 1N saline or phosphate buffer solution (PBS).
C3H mice in the mitigation experiment were irradiated with 8Gy and then injected with 75 mg/kg 1 hr post exposure and then again 25 hrs post exposure.

[9] = tested on: Yeast cells; test: DEL assay, antioxidant radioprotection by yeast growth phase; format: cell-based, Saccharomyces cerevisiae
Source text: In this study we used the DEL assay to measure gamma-ray induced DNA deletions throughout different phases of yeast culture growth. While yeast survival only differed by as much as two fold throughout the yeast growth phase, proliferating cells in lag and early exponential growth phases were ten-fold more sensitive to ionizing radiation-induced DNA deletions than cells in stationary growth. […] The ability of antioxidants L-ascorbic acid and DMSO to protect against radiation-induced DNA deletions was also measured within the different phases of yeast culture growth. […] This knowledge was used for the screening of radioprotectors.

[10] = Preliminary studies of Targeted Library analogs (DEL/Survival assay); format: cell-based
Source text: Analogues within at least 70% or greater similarity as defined by the Tanimoto rule of similarity are believed to have similar results as the aforementioned compounds in this application. […] Other structures within this limitation (Tanimoto rule of similarity as described and positive in DEL/Survival assay) are included. The DEL Assay, which is further described below, has established itself not only as a effective tool in carcinogenic activity detection but also as an effective methodology in establishing DNA protective properties against insults such as free radicals and ionizing radiation (see, e.g., Sobol, Z., et al., Mutation Research/Fundamental and Molecular Mechanisms of Mutagenesis, 2008. 638(1-2): p. 83-89, Hafer, K., Rivina, L., Schiestl, R H. Yeast DEL assay detects protection against radiation induced cytotoxicity and genotoxicity—adaptation of a microtiter plate version, Radiation Research, 2010, 174(6):719-26)). Thus, the DEL Assay is a reliable tool for the prediction of genotoxic and cytotoxic modulating agents. These agents also include, but are not limited to, ionizing radiation, UV radiation, environmental carcinogenesis, genetic instability, etc.
Compounds in the Targeted Library are selected as a development candidate using the Tanimoto coefficient. […]

[11] = tested on: yeast S. cerevisiae; test: Yeast DNA deletions (reversion to histidine prototrophy) after γ-rays; format: cell-based, Saccharomyces cerevisiae; conditions: data not shown
[12] = tested on: Human lymphoblastoid cells; test: γ-H2AX foci formation after ionizing radiation; format: cell-based; conditions: data not shown
[13] = tested on: Human lymphoblastoid cells; test: Colony survival assay after ionizing radiation; format: cell-based; conditions: data not shown
[14] = tested on: mouse peripheral blood
Description: In this study, we examined the role of N-acetyl-L-cysteine (NAC), a clinically proven safe agent, for it's ability to protect against γ-ray-induced DNA strand breaks and/or DNA deletions in yeast and mammals. In the yeast S. cerevisiae, DNA deletions were scored by reversion to histidine prototrophy. Human lymphoblastoid cells were examined for the frequency of γ-H2AX foci formation, indicative of DNA double strand break formation. DNA strand breaks were also measured in mouse peripheral blood by the alkaline comet assay.

[15] = lag and early exponential growth phases
[16] = non-dividing cells in stationary phase

Cc1sc(NC(=O)CN(Cc2ccc(F)cc2)C(=O)c2ccccc2)c(C(N)=O)c1C [Yel001]
radioprotector characteristics (genotoxicity and cytotoxicity protection) [1]: radioprotector characteristics
reduction of DEL events (gene reversion frequency) ([2]; compound added 0-60 min after 2000Gy, p<0.05): decreased DEL frequencies; also recorded: significant reduction of genetic instability
mitigation of radiation cytotoxicity (survival) ([2]; compound added at time points after 2000Gy, significant only at 60 min): increased survival fractions; also recorded: mitigation of radiation cytotoxicity has been observed
survival following irradiation as compared to that of controls [3]: 130%
adverse physiological or behavioral effects [4]: did not show any adverse physiological nor behavioral adverse effects
first development of leukemia ([5]; 3.5 Gy, 25 mg/kg s.c., no drug also within 42 days): 42 days
mice exhibiting leukemia ([5]; Day 94, 3.5 Gy, 25 mg/kg s.c. 5 injections, irradiated controls 30%): 20%
leukemia frequency ([5]; Day 270, irradiated population 90%): 50%
latency to leukemia development ([5]; FIG. 17): increased latency to leukemia development
frequency of radiation induced and/or spontaneous cancer ([5]; FIG. 18): effective for reducing the frequency of radiation induced and spontaneous cancer
UV genotoxicity and cytotoxicity ([6]; 15 uM, P<0.05): reduces cell death and genotoxicity; also recorded: significantly reduces genotoxicity and cytotoxicity
survival ([6]; 4000 J/m^2 UV, 15 uM at 60 minutes, untreated 0.64%): 2.91%
genotoxicity and cytotoxicity by MMS [7]: reduction in genotoxicity and cytotoxicity; also recorded: can be mitigated
mitigation efficacy ([8]; 75 mg/kg 1.25 protocol): did show therapeutic benefit
mitigation efficacy ([8]; 75 mg/kg 1.25 protocol, listed as Yel1): show activity
mice survived LD100/30 irradiation [8]: 67%
mitigation efficacy ([8]; 75 mg/kg s.c. 5×24 protocol): did not exhibit significant efficacy
mitigation efficacy ([8]; 75 mg/kg s.c. 5×24 protocol, listed as Yel1): also showed efficacy
percentage of survivors ([8]; both protocols, 252 days post irradiation): 30%
animals still alive beyond 30 day window ([8]; both protocols, +292 days): 30%

C[S+](C)[O-] [DMSO]
protection against radiation-induced DNA deletions [9, 15]: protected
protection against radiation-induced DNA deletions [9, 16]: could not be protected

Cc1sc(NC(=O)CN(Cc2ccccc2)C(=O)c2ccccc2)c(C(N)=O)c1C [2-[2-(Benzoyl-benzyl-amino)-acetylamino]-4,5-dimethyl-thiophene-3-carboxylic acid amide]
activity in preliminary studies [10]: shown activity

CC(=O)N[C@@H](CS)C(=O)O [NAC, N-acetyl-L-cysteine]
frequency of IR-induced DNA deletions [11]: reduced the frequency of IR-induced DNA deletions
protection against cell death [11]: did not protect against cell death
γ-H2AX foci formation [12]: reduced γ-H2AX foci formation
protective effect in colony survival [13]: no protective effect
genotoxicity of treatment alone ([14]; mouse, in vivo): not genotoxic
protection against DNA strand breaks ([14]; via drinking water, whole-body irradiated with 1 Gy): fully protected against DNA strand breaks

NCCCNCCSP(=O)(O)O [Amifostine, reference compound]
mice survived LD100/30 irradiation [8]: 33%

O=C1O[C@H]([C@@H](O)CO)C(O)=C1O [L-ascorbic acid]
protection against radiation-induced DNA deletions [9, 15]: protected
protection against radiation-induced DNA deletions [9, 16]: could not be protected
